Data reported in publication PMC10882719 (Frontiers in Neuroscience, 2024).
Where two headings read alike, the source gives them in different places.

What was measured:
[1] = target: T1, serotonin (5HT) transporter (SERT) (Rattus norvegicus, UniProt P31652); test: Competitive radioligand binding, [3H]citalopram, rat brain membranes
T1 construct: Rat brains were dissected and tissue was homogenized in cold lysis buffer; from tissue; host or cells: rat brain membrane preparation
Protocol: All studies were performed at Gifford Bioscience, Ltd. (Birmingham, UK) according to standard protocols.
Radioligands used were: [^3H] Citalopram (PerkinElmer NET1039250UC); [^3H] Nisoxetine (PerkinElmer NET1084250UC); [^3H] WIN35428 (PerkinElmer NET1033250UC). Nonspecific compounds used were Citalopram (Tocris Bioscience 1,427); JHW007 (Tocris Bioscience 4,351); Nomifensine (Abcam ab146004). […] Rat brains were dissected and tissue was homogenized in cold lysis buffer, centrifuged at 100xg for 2 min and the supernatant was placed in a fresh tube. Supernatant was centrifuged at 13,000 × g for 10 min at 4°C to re-pellet the cell lysate. The pellet was resuspended in fresh wash buffer (50 mM Tris–HCl; 5 mM MgCl2; 5 mM EDTA) and centrifuged a third time. The pellet was then resuspended in wash buffer containing 10% sucrose as a cryoprotectant, divided into aliquots (0.3 mL) and stored at −80°C. A sample of the homogenate was analyzed for protein content using the Sigma® BCA assay. On the day of the assay, the membrane preparation was thawed and the pellet resuspended in final assay buffer. […] Filters were then dried under a warm air stream, sealed in polyethylene, scintillation cocktail added, and the radioactivity counted in a Wallac® TriLux 1,450 MicroBeta counter. […] Ki was subsequently calculated using the Cheng-Prusoff equation.

5HT2A receptor [2] = target: T2, 5HT2A receptor (Homo sapiens, UniProt P28223); test: GPCRmax screen, agonist mode, 5HT2A; assay type: cell-based; details: for % Agonist Activity: HTR2A
T2 construct: β-galactosidase enzyme fragment (enzyme fragment complementation reporter); host or cells: PathHunter cell lines
Protocol: (§1) Studies were performed at Eurofins DiscoverX Corporation (Fremont, CA) using the GPCRmax assay according to the manufacturer’s protocols. […] Activity greater than 30% typically indicates agonist activity and inhibition greater than 50% indicates antagonist activity. This assay uses enzyme fragment complementation with […] as the functional reporter. When a GPCR is activated, […] is recruited and the reporter is detectable. GPCRmax offers a high-throughput screen of 168 GPCRs for agonist or antagonist activity. Briefly, PathHunter cell lines were propagated, seeded into 384-well microplates and incubated at 37°C. […] Microplates were read following signal generation with a PerkinElmer Envision™ instrument for chemiluminescent signal detection. Compound activity was analyzed using CBIS data analysis suite (ChemInnovation, CA) to determine raw values (RLU). For agonist mode assay, percentage activity was calculated using the following formula: % Activity =100% × (mean RLU of test sample - mean RLU of vehicle control) / (mean MAX control ligand - mean RLU of vehicle control). For antagonist mode assay, percentage inhibition was calculated using the following formula: % Inhibition =100% × (1 - (mean RLU of test sample - mean RLU of vehicle control) / (mean RLU of EC80 control - mean RLU of vehicle control)).

5HT2C receptor [3] = target: T3, 5HT2C receptor (Homo sapiens, UniProt P28335); test: GPCRmax screen, agonist mode, 5HT2C; assay type: cell-based; details: for % Agonist Activity: HTR2C
T3 construct: β-galactosidase enzyme fragment (enzyme fragment complementation reporter); host or cells: PathHunter cell lines
T3 sequence (P28335 33-458): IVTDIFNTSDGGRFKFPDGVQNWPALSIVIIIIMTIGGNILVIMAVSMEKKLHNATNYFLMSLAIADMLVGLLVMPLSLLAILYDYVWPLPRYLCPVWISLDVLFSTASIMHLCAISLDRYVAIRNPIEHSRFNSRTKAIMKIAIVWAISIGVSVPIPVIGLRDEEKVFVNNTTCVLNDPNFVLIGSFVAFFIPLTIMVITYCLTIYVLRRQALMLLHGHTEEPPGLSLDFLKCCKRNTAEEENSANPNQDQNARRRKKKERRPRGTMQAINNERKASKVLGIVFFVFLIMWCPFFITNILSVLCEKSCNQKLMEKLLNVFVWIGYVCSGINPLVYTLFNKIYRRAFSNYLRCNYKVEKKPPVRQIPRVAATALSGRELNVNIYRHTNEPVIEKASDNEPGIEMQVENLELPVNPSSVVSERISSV
Protocol: as §1

5HT5A = target: T4, 5HT5A (Homo sapiens, UniProt P47898); test: GPCRmax screen, agonist mode, 5HT5A; assay type: cell-based; details: for % Agonist Activity: HTR5A
T4 construct: β-galactosidase enzyme fragment (enzyme fragment complementation reporter); host or cells: PathHunter cell lines
Protocol: as §1

5HT2C receptor [4] = target: T3, 5HT2C receptor; test: GPCRmax screen, antagonist mode, 5HT2C; assay type: cell-based; details: for % Antagonist Activity: HTR2C
Protocol: as §1

5HT2A receptor [5] = target: T2, 5HT2A receptor; test: GPCRmax screen, antagonist mode, 5HT2A; assay type: cell-based; details: HTR2A
Protocol: as §1

amygdala gene expression = test: RNA-seq differential gene expression, amygdala; assay type: in vivo, rat; details: 10 mg/kg IP, 8 h
[6] = tested on: myelin basic protein (MBP); test: Immunohistochemistry of myelin basic protein in brain; assay type: in vivo, rat; details: 10 mg/kg IP, 24 h, vs vehicle
Protocol: The in-life portion of the study was conducted at WuXi Apptec (Cranbury, NJ). Sectioning and staining of brains took place at Neuroscience Associates (NSA, Knoxville, TN). […] Brains were post-fixed in PFA before shipment to NSA for processing and staining. Hemisected brains were mounted, sectioned and stained using standard protocols with myelin-basic protein primary antibody (MBP SMI-99, 1:5000, Biolegend, San Diego, CA) and anti-mouse biotinylated secondary antibody (BA-2001, Vector Laboratories, Newark, CA). Slides were imaged using a Huron Digital Pathology TissueScope LE120 whole slide scanning system. 20x objective was used with a 0.4um/pixel resolution.

T4 sequence (P47898 whole entry, the tested form may be a part): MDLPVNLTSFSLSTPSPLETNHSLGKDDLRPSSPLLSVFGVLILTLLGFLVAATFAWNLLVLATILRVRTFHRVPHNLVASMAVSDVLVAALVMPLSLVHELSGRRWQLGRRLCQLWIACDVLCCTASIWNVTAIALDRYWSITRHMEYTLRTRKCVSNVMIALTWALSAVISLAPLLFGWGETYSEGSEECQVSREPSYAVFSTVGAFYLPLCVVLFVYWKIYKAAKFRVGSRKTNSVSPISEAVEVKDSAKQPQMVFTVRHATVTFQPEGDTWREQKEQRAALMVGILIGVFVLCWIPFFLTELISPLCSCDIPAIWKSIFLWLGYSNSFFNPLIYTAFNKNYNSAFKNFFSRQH
T2 sequence (P28223 whole entry, the tested form may be a part): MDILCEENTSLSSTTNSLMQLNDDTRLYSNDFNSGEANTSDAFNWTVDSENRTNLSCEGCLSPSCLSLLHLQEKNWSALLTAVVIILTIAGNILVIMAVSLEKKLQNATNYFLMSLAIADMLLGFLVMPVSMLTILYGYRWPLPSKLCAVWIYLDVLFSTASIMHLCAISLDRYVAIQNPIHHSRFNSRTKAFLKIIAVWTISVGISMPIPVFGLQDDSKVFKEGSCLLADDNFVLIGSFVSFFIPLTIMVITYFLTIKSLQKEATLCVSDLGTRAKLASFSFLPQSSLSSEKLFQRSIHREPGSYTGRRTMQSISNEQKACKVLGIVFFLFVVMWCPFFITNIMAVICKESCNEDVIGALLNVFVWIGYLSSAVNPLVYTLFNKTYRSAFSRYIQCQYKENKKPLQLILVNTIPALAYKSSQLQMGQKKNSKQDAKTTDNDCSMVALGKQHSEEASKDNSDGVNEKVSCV
T1 sequence (P31652 whole entry): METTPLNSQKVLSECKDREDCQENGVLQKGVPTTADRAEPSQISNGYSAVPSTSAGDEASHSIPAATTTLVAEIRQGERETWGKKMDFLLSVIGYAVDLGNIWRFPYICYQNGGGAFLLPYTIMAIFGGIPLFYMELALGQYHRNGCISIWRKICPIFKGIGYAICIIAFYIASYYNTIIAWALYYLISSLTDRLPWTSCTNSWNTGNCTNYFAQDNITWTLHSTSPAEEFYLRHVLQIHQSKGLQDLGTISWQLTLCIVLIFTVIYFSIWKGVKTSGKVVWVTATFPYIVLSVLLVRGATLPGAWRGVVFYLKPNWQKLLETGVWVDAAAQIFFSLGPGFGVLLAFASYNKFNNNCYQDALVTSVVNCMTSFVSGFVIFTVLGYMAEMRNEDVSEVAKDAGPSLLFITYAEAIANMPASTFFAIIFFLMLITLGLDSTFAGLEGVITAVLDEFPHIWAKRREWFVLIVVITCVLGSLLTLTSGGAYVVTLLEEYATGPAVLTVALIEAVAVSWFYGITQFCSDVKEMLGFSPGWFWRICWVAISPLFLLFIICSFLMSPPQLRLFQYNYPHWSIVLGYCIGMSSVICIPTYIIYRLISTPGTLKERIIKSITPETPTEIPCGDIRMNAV

Structure (SMILES)	% Agonist Activity (5HT2A receptor [2]; 1 uM) [%]	% Agonist Activity (5HT2A receptor [2]; 10 uM) [%]	% Agonist Activity (5HT2C receptor [3]; 1 uM) [%]	% Agonist Activity (5HT2C receptor [3]; 10 uM) [%]	% Agonist Activity (5HT5A; 1 uM) [%]	% Agonist Activity (5HT5A; 10 uM) [%]	% Antagonist Activity (5HT2C receptor [4]; 1 uM) [%]	% Antagonist Activity (5HT2C receptor [4]; 10 uM) [%]	% Antagonist Activity (5HT2A receptor [5]; 1 uM) [%]	% Antagonist Activity (5HT2A receptor [5]; 10 uM) [%]	MBP expression, basolateral nucleus of the amygdala [6]	MBP expression, central nucleus of the amygdala [6]	MBP expression, cortex (control region) [6]	also measured
CNC(C)C(=O)c1ccc2c(c1)OCO2 (stereo not shown) [methylone]	-0.1	1.4	1.4	3.7	13.6	13.9	21.1	24.2	-7.9	-2.7	significant reduction	significant reduction	No change	Ki [1]: 4.15 µM; % agonist activity, 5HT5A (greatest activity detected) (5HT5A; 1 or 10 μM, threshold 30% activity): 13.9%; Share of genes regulated by this drug that are also regulated by the other drug (amygdala gene expression): 87%
CNC(C)Cc1ccc2c(c1)OCO2 (stereo not shown) [MDMA, 3,4-Methylenedioxy methamphetamine, reference compound]	4.9	27.5	15.9	28	7.2	0.8	22.5	52.2	5.1	3	significant reduction	significant reduction	No change	Ki ([1]; read-out: Ki, SERT, competitive radioligand binding, rat brain membranes, Cheng-Prusoff): 2.62 µM; % agonist activity, 5HT2A (5HT2A receptor [2]; 10 μM, cutoff 30% activity): 27.5%; % agonist activity, 5HT2C (5HT2C receptor [3]; 10 μM, cutoff 30% activity): 28.0%; % antagonist activity (inhibition), 5HT2C (5HT2C receptor [4]; Figure 2B, threshold 50% inhibition): 52.2%; Additional genes significantly regulated by this drug only (amygdala gene expression; vs vehicle): 1,313
